Experimental data from patent US9999619B2, “Piperidin-4-yl azetidine derivatives as JAK1 inhibitors” (Incyte Corporation, priority 2010, dated 2018).

How the values were obtained:
Assay type in all cases: biochemical
[1] = target: human JAK1 (a.a. 837-1142); assay: In vitro JAK kinase assay (HTRF, phosphorylation of a biotinylated peptide), JAK1; conditions: ratio of JAK2 IC50 to JAK1 IC50, measured at 1 mM ATP
Method: (§1) Compounds herein were tested for inhibitory activity of JAK targets according to the following in vitro assay described in Park et al., Analytical Biochemistry 1999, 269, 94-104. The catalytic domains of human JAK1 (a.a. 837-1142), Jak2 (a.a. 828-1132) and Jak3 (a.a. 781-1124) with an N-terminal His tag were expressed using baculovirus in insect cells and purified. The catalytic activity of JAK1, JAK2 or JAK3 was assayed by measuring the phosphorylation of a biotinylated peptide. The phosphorylated peptide was detected by homogenous time resolved fluorescence (HTRF). […] Reactions were carried out at room temperature for 1 hr and then stopped with 20 μL 45 mM EDTA, 300 nM SA-APC, 6 nM Eu-Py20 in assay buffer (Perkin Elmer, Boston, Mass.). Binding to the Europium labeled antibody took place for 40 minutes and HTRF signal was measured on a Fusion plate reader (Perkin Elmer, Boston, Mass.).

[2] = target: human JAK1 (a.a. 837-1142) (Homo sapiens, UniProt P23458); assay: as above; conditions: measured at 1 mM ATP
Method: as §1

Jak2 (a.a. 828-1132) = Jak2 (a.a. 828-1132) (Homo sapiens (Human), UniProt O60674); assay: In vitro JAK kinase assay (HTRF, phosphorylation of a biotinylated peptide), JAK2; conditions: measured at 1 mM ATP
Chain of Jak2 (a.a. 828-1132) (O60674 828-1132): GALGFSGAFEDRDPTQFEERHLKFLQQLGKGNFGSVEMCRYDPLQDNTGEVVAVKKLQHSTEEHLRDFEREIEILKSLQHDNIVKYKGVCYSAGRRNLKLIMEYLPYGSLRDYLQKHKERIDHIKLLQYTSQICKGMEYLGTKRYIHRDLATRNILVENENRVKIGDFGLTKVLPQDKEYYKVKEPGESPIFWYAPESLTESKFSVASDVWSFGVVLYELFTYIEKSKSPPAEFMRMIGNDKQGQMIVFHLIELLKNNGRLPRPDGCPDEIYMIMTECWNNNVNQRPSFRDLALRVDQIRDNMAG
Method: as §1

SMILES	IC50 Ratio JAK2/JAK1 [1]	IC50 [2]	IC50 (Jak2 (a.a. 828-1132))
N#CCC1(n2cc(-c3ncnc4[nH]ccc34)cn2)CN([C@@H]2CCN(C(=O)c3ccnc(C(F)(F)F)c3F)C[C@@H]2F)C1 (relative stereo) [Example 361, {1-{cis-3-Fluoro-1-[3-fluoro-2-(trifluoromethyl)isonicotinoyl]piperidin-4-yl}-3-[4-(7H-pyrrolo[2,3-d]pyrimidin-4-yl)-1H-pyrazol-1-yl]azetidin-3-yl}acetonitrile]	20.9	≤ 0.005 µM	0.05 to 0.1 µM
N#CCC1(n2cc(-c3ncnc4[nH]ccc34)cn2)CN([C@@H]2CCN(C(=O)c3ccnc(C(F)(F)F)n3)C[C@@H]2F)C1 (relative stereo) [Example 362, {1-(cis-3-Fluoro-1-{[2-(trifluoromethyl)pyrimidin-4-yl]carbonyl}piperidin-4-yl)-3-[4-(7H-pyrrolo[2,3-d]pyrimidin-4-yl)-1H-pyrazol-1-yl]azetidin-3-yl}acetonitrile]	22.4	≤ 0.005 µM	0.05 to 0.1 µM
CC1CC(N2CC(CC#N)(n3cc(-c4ncnc5[nH]ccc45)cn3)C2)CCN1C(=O)c1cccc(F)c1 (single isomer, unassigned) [Example 149, {1-[1-(3-fluorobenzoyl)-2-methylpiperidin-4-yl]-3-[4-(7H-pyrrolo[2,3-d]pyrimidin-4-yl)-1H-pyrazol-1-yl]azetidin-3-yl}acetonitrile]	5.0	≤ 0.005 µM	–
CC1CC(N2CC(CC#N)(n3cc(-c4ncnc5[nH]ccc45)cn3)C2)CCN1C(=O)c1cccc(F)c1 (single isomer, unassigned) [Example 150, {1-[1-(3-fluorobenzoyl)-2-methylpiperidin-4-yl]-3-[4-(7H-pyrrolo[2,3-d]pyrimidin-4-yl)-1H-pyrazol-1-yl]azetidin-3-yl}acetonitrile]	7.0	≤ 0.005 µM	–
CC1CC(N2CC(CC#N)(n3cc(-c4ncnc5[nH]ccc45)cn3)C2)CCN1Cc1ccc(N(C)C)c(C#N)c1F (single isomer, unassigned) [Example 242, 3-[(4-{3-(cyanomethyl)-3-[4-(7H-pyrrolo[2,3-d]pyrimidin-4-yl)-1H-pyrazol-1-yl]azetidin-1-yl}-2-methylpiperidin-1-yl)methyl]-6-(dimethylamino)-2-fluorobenzonitrile]	8.3	–	–
CC1CC(N2CC(CC#N)(n3cc(-c4ncnc5[nH]ccc45)cn3)C2)CCN1Cc1ccc(N(C)C)c(C#N)c1F (single isomer, unassigned) [Example 243, 3-[(4-{3-(cyanomethyl)-3-[4-(7H-pyrrolo[2,3-d]pyrimidin-4-yl)-1H-pyrazol-1-yl]azetidin-1-yl}-2-methylpiperidin-1-yl)methyl]-6-(dimethylamino)-2-fluorobenzonitrile]	6.4	–	–
N#CCC1(n2cc(-c3ncnc4[nH]ccc34)cn2)CN(C2CCN(C(=O)c3ccc(-c4ccc5ncccc5c4)c(F)c3)CC2)C1 [Example 2, {1-[1-(3-Fluoro-4-quinolin-6-ylbenzoyl)piperidin-4-yl]-3-[4-(7H-pyrrolo[2,3-d]pyrimidin-4-yl)-1H-pyrazol-1-yl]azetidin-3-yl}acetonitrile]	12.3	≤ 0.005 µM	0.05 to 0.1 µM
N#CCC1(n2cc(-c3ncnc4[nH]ccc34)cn2)CN(C2CCN(C(=O)c3cc(F)cc(F)c3)CC2)C1 [Example 3, {1-[1-(3,5-difluorobenzoyl)piperidin-4-yl]-3-[4-(7H-pyrrolo[2,3-d]pyrimidin-4-yl)-1H-pyrazol-1-yl]azetidin-3-yl}acetonitrile]	11.0	≤ 0.005 µM	0.01 to 0.05 µM
N#CCC1(n2cc(-c3ncnc4[nH]ccc34)cn2)CN(C2CCN(C(=O)c3cc(F)c(F)c(F)c3)CC2)C1 [Example 4, {3-[4-(7H-pyrrolo[2,3-d]pyrimidin-4-yl)-1H-pyrazol-1-yl]-1-[1-(3,4,5-trifluorobenzoyl)piperidin-4-yl]azetidin-3-yl}acetonitrile]	10.2	0.005 to 0.02 µM	0.05 to 0.1 µM
COc1ccc(C(=O)N2CCC(N3CC(CC#N)(n4cc(-c5ncnc6[nH]ccc56)cn4)C3)CC2)cc1F [Example 5, {1-[1-(3-fluoro-4-methoxybenzoyl)piperidin-4-yl]-3-[4-(7H-pyrrolo[2,3-d]pyrimidin-4-yl)-1H-pyrazol-1-yl]azetidin-3-yl}acetonitrile]	12.0	≤ 0.005 µM	0.01 to 0.05 µM
N#CCC1(n2cc(-c3ncnc4[nH]ccc34)cn2)CN(C2CCN(C(=O)c3ccc(O)c(F)c3)CC2)C1 [Example 6, {1-[1-(3-fluoro-4-hydroxybenzoyl)piperidin-4-yl]-3-[4-(7H-pyrrolo[2,3-d]pyrimidin-4-yl)-1H-pyrazol-1-yl]azetidin-3-yl}acetonitrile]	14.3	≤ 0.005 µM	0.01 to 0.05 µM
N#CCC1(n2cc(-c3ncnc4[nH]ccc34)cn2)CN(C2CCN(C(=O)c3cccc(C(F)(F)F)c3F)CC2)C1 [Example 7, {1-{1-[2-fluoro-3-(trifluoromethyl)benzoyl]piperidin-4-yl}-3-[4-(7H-pyrrolo[2,3-d]pyrimidin-4-yl)-1H-pyrazol-1-yl]azetidin-3-yl}acetonitrile]	10.8	≤ 0.005 µM	≤ 0.01 µM
N#CCC1(n2cc(-c3ncnc4[nH]ccc34)cn2)CN(C2CCN(C(=O)C3CCCCC3)CC2)C1 [Example 8, {1-[1-(cyclohexylcarbonyl)piperidin-4-yl]-3-[4-(7H-pyrrolo[2,3-d]pyrimidin-4-yl)-1H-pyrazol-1-yl]azetidin-3-yl}acetonitrile]	11.0	0.005 to 0.02 µM	0.05 to 0.1 µM
N#CCC1(n2cc(-c3ncnc4[nH]ccc34)cn2)CN(C2CCN(C(=O)c3ccccc3)CC2)C1 [Example 9, {1-(1-benzoylpiperidin-4-yl)-3-[4-(7H-pyrrolo[2,3-d]pyrimidin-4-yl)-1H-pyrazol-1-yl]azetidin-3-yl}acetonitrile]	3.2	≤ 0.005 µM	0.01 to 0.05 µM
N#CCC1(n2cc(-c3ncnc4[nH]ccc34)cn2)CN(C2CCN(C(=O)c3ccc(-c4cccc5cccnc45)c(F)c3)CC2)C1 [Example 132, {1-[1-(3-fluoro-4-quinolin-8-ylbenzoyl)piperidin-4-yl]-3-[4-(7H-pyrrolo[2,3-d]pyrimidin-4-yl)-1H-pyrazol-1-yl]azetidin-3-yl}acetonitrile]	5.8	–	≤ 0.01 µM
N#CCC1(n2cc(-c3ncnc4[nH]ccc34)cn2)CN(C2CC3CCC(C2)N3C(=O)C2CCCCC2)C1 (stereo not shown) [Example 147, {1-[8-(cyclohexylcarbonyl)-8-azabicyclo[3.2.1]oct-3-yl]-3-[4-(7H-pyrrolo[2,3-d]pyrimidin-4-yl)-1H-pyrazol-1-yl]azetidin-3-yl}acetonitrile]	–	≤ 0.005 µM	≤ 0.01 µM
N#CCC1(n2cc(-c3ncnc4[nH]ccc34)cn2)CN(C2CCN(C(=O)Nc3ccc(F)cc3C(F)(F)F)CC2)C1 [Example 154, 4-{3-(Cyanomethyl)-3-[4-(7H-pyrrolo[2,3-d]pyrimidin-4-yl)-1H-pyrazol-1-yl]azetidin-1-yl}-N-[4-fluoro-2-(trifluoromethyl)phenyl]piperidine-1-carboxamide]	–	≤ 0.005 µM	0.01 to 0.05 µM
N#CCC1(n2cc(-c3ncnc4[nH]ccc34)cn2)CN(C2CCN(Cc3ccc(F)cc3F)CC2)C1 [Example 217, {1-[1-(2,4-difluorobenzyl)piperidin-4-yl]-3-[4-(7H-pyrrolo[2,3-d]pyrimidin-4-yl)-1H-pyrazol-1-yl]azetidin-3-yl}acetonitrile]	5.8	–	–
CC1CC(N2CC(CC#N)(n3cc(-c4ncnc5[nH]ccc45)cn3)C2)CCN1Cc1c(F)cccc1Cl (stereo not shown) [Example 244, {1-[1-(2-chloro-6-fluorobenzyl)-2-methylpiperidin-4-yl]-3-[4-(7H-pyrrolo[2,3-d]pyrimidin-4-yl)-1H-pyrazol-1-yl]azetidin-3-yl}acetonitrile]	1.8	–	–
CC1CC(N2CC(CC#N)(n3cc(-c4ncnc5[nH]ccc45)cn3)C2)CCN1Cc1c(F)cccc1Cl (stereo not shown) [Example 245, {1-[1-(2-chloro-6-fluorobenzyl)-2-methylpiperidin-4-yl]-3-[4-(7H-pyrrolo[2,3-d]pyrimidin-4-yl)-1H-pyrazol-1-yl]azetidin-3-yl}acetonitrile]	1.5	–	–
[2H]C1(N2CC(CC#N)(n3cc(-c4ncnc5[nH]ccc45)cn3)C2)CCN(C(=O)c2ccnc(C(F)(F)F)c2F)CC1 [Example 363, {1-{1-[3-Fluoro-2-(trifluoromethyl)isonicotinoyl]-4-deuteropiperidin-4-yl}-3-[4-(7H-pyrrolo[2,3-d]pyrimidin-4-yl)-1H-pyrazol-1-yl]azetidin-3-yl}acetonitrile]	–	≤ 0.005 µM	0.05 to 0.1 µM
[2H]C1([2H])CN(C(=O)c2ccnc(C(F)(F)F)c2F)CC([2H])([2H])C1([2H])N1CC(CC#N)(n2cc(-c3ncnc4[nH]ccc34)cn2)C1 [Example 364, {1-{1-[3-Fluoro-2-(trifluoromethyl)isonicotinoyl]3,3,4,5,5-pentadeuteropiperidin-4-yl}-3-[4-(7H-pyrrolo[2,3-d]pyrimidin-4-yl)-1H-pyrazol-1-yl]azetidin-3-yl}acetonitrile]	–	≤ 0.005 µM	0.05 to 0.1 µM
